Test: Acid dissociation constant, pKa of the compound

pKa: 11.9
Compound: CCc1cc(C(N)=S)ccn1 [ETHIONAMIDE]

Reference: ChEMBL document CHEMBL4699437, “New insights into ethionamide metabolism: influence of oxidized methionine on its degradation path” (RSC Med Chem, 2020)
